Experimental findings from patent US12649751B2 (Arcus Biosciences, Inc., priority 2022, dated 2026) are described below.

For one test, the target named is HPK1 (Homo sapiens, UniProt Q92918). Briefly: HPK1 Biochemical Assay (ADP-Glo luminescence; low ATP 10 μM or high ATP 200 μM). (In ADP-Glo the light output rises with the ADP produced.)
Test [1] concerns p-SLP-76 (Ser376) in Jurkat cells. Briefly: pSLP76 Cellular Assay (AlphaLISA SureFire Ultra p-SLP-76 (Ser376), anti-CD3 activated Jurkat cells). The note with it: Homo sapiens, read-out: Cellular Potency. Type of test: cell-based. A digest of the protocol:
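Read-out is AlphaLISA p-SLP-76 (Ser376) signal at 570 nm in Jurkat lysates, with IC50 fitted by 4-parameter logistic. Cells were starved overnight, exposed 1 h at 37 °C to 22 twofold compound dilutions in HBSS, then activated 45 min with anti-CD3 (0.025 mg/ml stock added).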
On the technique in general: In Alpha technology, singlet oxygen from a donor bead excites a nearby acceptor bead.

Where [2] appears, read: 2 nM HPK1, 10 μM ATP, read-out: Biochemical Potency (low ATP).
Setting [3] is: Jurkat cells, anti-CD3 stimulation, pSLP76.
Setting [4] is: HPK1 ADP-Glo assay, high ATP (200 μM ATP, 5 nM HPK1), read-out: Biochemical Potency (high ATP).
The mark [5] stands for this setting: pSLP76 (Ser376) AlphaLISA, anti-CD3 activated Jurkat cells.
Where [6] appears, read: HPK1 ADP-Glo assay, low ATP (10 μM ATP, 2 nM HPK1), read-out: Biochemical Potency (low ATP).

SMILES strings stand for the structures. Like-named read-outs stand apart in the source and are kept apart here.

HPK1, sequence (Q92918 whole entry, species assumed): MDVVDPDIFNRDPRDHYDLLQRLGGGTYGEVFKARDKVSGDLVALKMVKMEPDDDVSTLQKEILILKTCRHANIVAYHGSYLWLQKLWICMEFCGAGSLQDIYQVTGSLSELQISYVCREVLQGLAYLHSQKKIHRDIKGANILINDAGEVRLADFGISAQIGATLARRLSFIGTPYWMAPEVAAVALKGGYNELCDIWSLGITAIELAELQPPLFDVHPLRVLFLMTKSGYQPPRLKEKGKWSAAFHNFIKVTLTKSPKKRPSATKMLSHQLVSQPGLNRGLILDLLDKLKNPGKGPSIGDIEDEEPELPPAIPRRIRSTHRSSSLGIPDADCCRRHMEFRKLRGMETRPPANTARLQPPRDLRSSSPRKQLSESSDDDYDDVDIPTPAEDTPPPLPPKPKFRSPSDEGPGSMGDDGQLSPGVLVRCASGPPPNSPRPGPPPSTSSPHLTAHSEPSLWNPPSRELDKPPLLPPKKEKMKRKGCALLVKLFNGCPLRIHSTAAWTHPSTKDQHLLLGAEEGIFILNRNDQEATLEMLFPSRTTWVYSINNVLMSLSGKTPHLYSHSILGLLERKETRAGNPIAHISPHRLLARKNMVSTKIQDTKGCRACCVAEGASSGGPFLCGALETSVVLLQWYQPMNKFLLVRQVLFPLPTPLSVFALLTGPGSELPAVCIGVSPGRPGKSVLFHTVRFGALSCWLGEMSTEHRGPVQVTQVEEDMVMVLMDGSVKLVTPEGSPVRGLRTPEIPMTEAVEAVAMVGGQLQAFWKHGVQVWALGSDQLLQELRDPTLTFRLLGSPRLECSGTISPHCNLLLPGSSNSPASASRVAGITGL

As to `Cc1cc(Nc2cc3nc(-c4ncccc4C)sc3cn2)nc(O[C@H]2CCNC2)c1` [Example 164, 4-Methyl-N-[2-(3-methylpyridin-2-yl)-[1,3]thiazolo[5,4-c]pyridin-6-yl]-6-[(3S)-pyrrolidin-3-yloxy]pyridin-2-amine], the IC50 at HPK1 (setting [2]) is under 100 nM; in test [1] (setting [3]), 100 to 1000 nM.
With `CCN1C[C@@H]2C[C@H]1CN2c1nc(C)cc(Nc2cc3nc(-c4cccc(C(=O)N5CCC[C@H](C)C5)c4)sc3cn2)n1` [Example 512], the IC50 (on HPK1 (setting [4]); in test [1] (setting [5])) was under 100 nM in each case.
Take `Cc1cccnc1-c1nc2cc(Nc3ccc4c(n3)[C@@H](N)CC4)ncc2s1` [Example 581]: the values for the IC50 (at HPK1 (setting [6]); in test [1] (setting [5])) were under 100 nM and 100 to 1000 nM, respectively.
Consider `Cc1cc(Nc2cc3nc(-c4cnn(C)c4C#N)sc3cn2)nc(N2C[C@@H]3C[C@H]2CN3C)n1` [Example 366], for which the IC50 at HPK1 (setting [4]) is under 100 nM; in test [1] (setting [5]) it was 100 to 1000 nM.
The corresponding values for `COC1CCN(c2cc(-c3nc4cc(Nc5cc(C)nc(N6C[C@@H]7C[C@H]6CN7C)n5)ncc4s3)ccn2)CC1` [Example 456] are under 100 nM and 1000 to 5000 nM.
On the same counts, the results for `Cc1cc(Nc2cc3nc(-c4cnn5c4CNCC5)sc3cn2)nc(N2C[C@@H]3C[C@H]2CN3C)n1` [Example 575] are under 100 nM and 100 to 1000 nM.
Regarding `c1cncc(-c2nc3cc(Nc4ccc([C@H]5CCOC5)c(CN5CCCC5)n4)ncc3s2)c1` (single isomer, unassigned) [Example 260, 5-[(3R or 3S)—Oxolan-3-yl]-N-[2-(pyridin-3-yl)-[1,3]thiazolo[5,4-c]pyridin-6-yl]-6-[(pyrrolidin-1-yl)methyl]pyridin-2-amine], the IC50 on HPK1 (setting [2]) was under 100 nM; in test [1] (setting [3]) it was 100 to 1000 nM.
The corresponding values for `Cc1ccc(Nc2cc3nc(-c4ncccc4C)sc3cn2)nc1CN1CCC[C@@H]1CO` [Example 49, [(2R)-1-[(3-Methyl-6-{[2-(3-methylpyridin-2-yl)-[1,3]thiazolo[5,4-c]pyridin-6-yl]amino}pyridin-2-yl)methyl]pyrrolidin-2-yl]methanol] are under 100 nM and 1000 to 5000 nM.
Consider `Cc1cc(Nc2cc3nc(-c4cccc(C(=O)N(C)C)c4)sc3cn2)nc(N2C[C@@H]3C[C@H]2CN3C[C@@H]2CCOC2)n1` [Example 488], for which the IC50 is under 100 nM on HPK1 (setting [4]) and 100 to 1000 nM in test [1] (setting [5]).
Turning to `Cc1cc(Nc2cc3nc(-c4cccc(C(=O)N5C[C@@H]6C[C@H]5CO6)c4)sc3cn2)nc(N2C[C@@H]3C[C@H]2CN3CCO)n1` [Example 564], the figures for the IC50 (at HPK1 (setting [4]); in test [1] (setting [5])) were under 100 nM and 100 to 1000 nM, respectively.
In the case of `Cc1cc(Nc2cc3nc(-c4cnn5c4CN(S(C)(=O)=O)CC5)sc3cn2)nc(N2C[C@@H]3C[C@H]2CN3C)n1` [Example 570], the IC50 (on HPK1 (setting [4]); in test [1] (setting [5])) was under 100 nM each time.
Take `Cc1cc(Nc2cc3nc(-c4ccncc4O[C@H]4CCOC4)sc3cn2)nc(N2C[C@@H]3C[C@H]2CN3C)n1` [Example 481]: the figures for the IC50 (at HPK1 (setting [4]); in test [1] (setting [5])) were under 100 nM and 1000 to 5000 nM, respectively.
The corresponding values for `CCN1C[C@@H]2C[C@H]1CN2c1nc(C)cc(Nc2cc3nc(-c4cnn(CC5CC5)c4)sc3cn2)n1` [Example 383] are under 100 nM and under 100 nM.
The corresponding values for `Cc1cc(Nc2cc3nc(-c4cccc5c4CCN(C)C5=O)sc3cn2)nc(N2C[C@@H]3C[C@H]2CN3C)n1` [Example 398] are 100 to 1000 nM and 1000 to 5000 nM.
As for `Cc1cc(Nc2cc3nc(-c4cnn5ccccc45)sc3cn2)nc(N2C[C@@H]3C[C@H]2CN3C)n1` [Example 386], the IC50 on HPK1 (setting [4]) was under 100 nM; in test [1] (setting [5]), 1000 to 5000 nM.
Regarding `Cc1cccnc1-c1nc2cc(Nc3cccc(C4(F)CC5CC4CN5)n3)ncc2s1` (stereo not shown) [Example 315, {6-(5-fluoro-2-azabicyclo[2.2.1]hept-5-yl)-2-pyridyl}[2-(3-methyl-2-pyridyl)-3-thia-1,5-diaza-6-indenyl]amine], the results for the IC50 (on HPK1 (setting [4]); at HPK1 (setting [6]); in test [1] (setting [5])) were under 100 nM, under 100 nM and 1000 to 5000 nM, respectively.
In the case of `Cc1cc(Nc2cc3nc(-c4cccc5c4CN(C)C5=O)sc3cn2)nc(N2C[C@@H]3C[C@H]2CN3C)n1` [Example 400], the IC50 at HPK1 (setting [4]) is under 100 nM; in test [1] (setting [5]), 5000 to 25000 nM.
For `Cc1cccnc1-c1nc2cc(Nc3cccc(N4C[C@@H](N)C[C@H]4CO)n3)ncc2s1` [Example 66, [(2S,4S)-4-Amino-1-(6-{[2-(3-methylpyridin-2-yl)-[1,3]thiazolo[5,4-c]pyridin-6-yl]amino}pyridin-2-yl)pyrrolidin-2-yl]methanol], the IC50 on HPK1 (setting [2]) is under 100 nM; in test [1] (setting [3]), 1000 to 5000 nM.
The corresponding values for `FC(F)n1cc(-c2nc3cc(Nc4ccc(C5CCOCC5)c(CN5CCCC5)n4)ncc3s2)cn1` [Example 224, N-{2-[1-(Difluoromethyl)-1H-pyrazol-4-yl]-[1,3]thiazolo[5,4-c]pyridin-6-yl}-5-(oxan-4-yl)-6-[(pyrrolidin-1-yl)methyl]pyridin-2-amine] are under 100 nM and 1000 to 5000 nM.
For the compound `Cc1cc(Nc2cc3nc(-c4cccc(C5(O)CCCC5)c4)sc3cn2)nc(N2C[C@@H]3C[C@H]2CN3C)n1` [Example 403], the IC50 on HPK1 (setting [4]) is under 100 nM; in test [1] (setting [5]), 100 to 1000 nM.
On the same counts, the results for `Cc1cc(Nc2cc3nc(-c4cncc(N5CCOCC5)c4)sc3cn2)nc(N2C[C@@H]3C[C@H]2CN3CCO)n1` [Example 477] are under 100 nM and 100 to 1000 nM.
As for `Cc1cccnc1-c1nc2cc(Nc3cc(F)cc(N4C[C@@H]5C[C@H]4CN5)n3)ncc2s1` [Example 334], the IC50 (on HPK1 (setting [6]); in test [1] (setting [5])) was under 100 nM in each case.
Take `COc1cccc(F)c1-c1nc2cc(Nc3cccc(N4C[C@@H]5C[C@H]4CN5C)n3)ncc2s1` [Example 80, N-[2-(2-Fluoro-6-methoxyphenyl)-[1,3]thiazolo[5,4-c]pyridin-6-yl]-6-[(1S,4S)-5-methyl-2,5-diazabicyclo[2.2.1]heptan-2-yl]pyridin-2-amine]: the IC50 at HPK1 (setting [2]) was under 100 nM; in test [1] (setting [3]), 100 to 1000 nM.
For `Cc1cc(Nc2cc3nc(-c4cccc(C(C)(C)C(=O)N(C)C)c4)sc3cn2)nc(N2C[C@@H]3C[C@H]2CN3C)n1` [Example 394], the values for the IC50 (on HPK1 (setting [4]); in test [1] (setting [5])) were under 100 nM and 100 to 1000 nM, respectively.
For the compound `COc1cccc(F)c1-c1nc2cc(Nc3cccc(N4CCN(C)CC4)n3)ncc2s1` [Example 81, N-[2-(2-Fluoro-6-methoxyphenyl)-[1,3]thiazolo[5,4-c]pyridin-6-yl]-6-(4-methylpiperazin-1-yl)pyridin-2-amine], the IC50 at HPK1 (setting [2]) is under 100 nM; in test [1] (setting [3]) it was 100 to 1000 nM.
The corresponding values for `c1cncc(-c2nc3cc(Nc4ccc(C5CCOCC5)c(CN5CCCC5)n4)ncc3s2)c1` [Example 225, 5-(Oxan-4-yl)-N-[2-(pyridin-3-yl)-[1,3]thiazolo[5,4-c]pyridin-6-yl]-6-[(pyrrolidin-1-yl)methyl]pyridin-2-amine] are under 100 nM and 100 to 1000 nM.
The corresponding values for `Cc1ccc(Nc2cc3nc(-c4ncccc4C)sc3cn2)nc1CN1CC[C@H](F)C1` [Example 43, 6-{[(3S)-3-Fluoropyrrolidin-1-yl]methyl}-5-methyl-N-[2-(3-methylpyridin-2-yl)-[1,3]thiazolo[5,4-c]pyridin-6-yl]pyridin-2-amine] are under 100 nM and over 5000 nM.
On to `Cc1cc(Nc2cc3nc(-c4cncc(-c5ncccc5C)c4)sc3cn2)nc(N2C[C@@H]3C[C@H]2CN3CCO)n1` [Example 318, 2-[(1S,4S)-5-{6-methyl-4-[2-(3-methyl-2,3′-bipyridyl-5′-yl)-3-thia-1,5-diaza-6-indenylamino]-2-pyrimidinyl}-2,5-diazabicyclo[2.2.1]hept-2-yl]ethanol], for which the IC50 (at HPK1 (setting [4]); in test [1] (setting [5])) was under 100 nM each time.
In the case of `COc1cccc(F)c1-c1nc2cc(Nc3cccc(N4CC5CCC4CN5C)n3)ncc2s1` (stereo not shown) [Example 79, N-[2-(2-Fluoro-6-methoxyphenyl)-[1,3]thiazolo[5,4-c]pyridin-6-yl]-6-{5-methyl-2,5-diazabicyclo[2.2.2]octan-2-yl}pyridin-2-amine], the IC50 was under 100 nM on HPK1 (setting [2]) and 1000 to 5000 nM in test [1] (setting [3]).
The corresponding values for `CN(C)Cc1nc(Nc2cc3nc(-c4c(F)cccc4F)sc3cn2)ccc1N1CCC(O)CC1` [Example 12, 1-(6-{[2-(2,6-Difluorophenyl)-[1,3]thiazolo[5,4-c]pyridin-6-yl]amino}-2-[(dimethylamino)methyl]pyridin-3-yl)piperidin-4-ol] are under 100 nM and 1000 to 5000 nM.
As for `Cc1cc(Nc2cc3nc(-c4cccc(-c5ncccc5C(C)C)c4)sc3cn2)nc(N2C[C@@H]3C[C@H]2CN3C)n1` [Example 585], the IC50 at HPK1 (setting [4]) was under 100 nM; in test [1] (setting [5]), 100 to 1000 nM.
On to `CN1C[C@@H]2C[C@H]1CN2c1cccc(Nc2cc3nc(-n4cccn4)sc3cn2)n1` [Example 206, 6-[(1S,4S)-5-Methyl-2,5-diazabicyclo[2.2.1]heptan-2-yl]-N-[2-(1H-pyrazol-1-yl)-[1,3]thiazolo[5,4-c]pyridin-6-yl]pyridin-2-amine], for which the IC50 is under 100 nM on HPK1 (setting [2]) and 100 to 1000 nM in test [1] (setting [3]).
Regarding `Cc1cccnc1-c1nc2cc(Nc3ccc(F)c(N4C[C@@H]5C[C@H]4CN5)n3)ncc2s1` [Example 83, 6-[(1S,4S)-2,5-Diazabicyclo[2.2.1]heptan-2-yl]-5-fluoro-N-[2-(3-methylpyridin-2-yl)-[1,3]thiazolo[5,4-c]pyridin-6-yl]pyridin-2-amine], the values for the IC50 (at HPK1 (setting [2]); in test [1] (setting [3])) were under 100 nM and 100 to 1000 nM, respectively.
